Measured values: patent US20230321024A1, “METHODS OF TREATING VISUAL DISORDERS USING DAILY LOW DOSING OF A RETINOID COMPOUND” (ELUMINEX BIOSCIENCES (SUZHOU) LIMITED, priority 2020, published 2023)

Columns and labels:
[1] = Human pharmacokinetics of circulating 9-cis-retinol in blood from completed clinical trials after oral 9-cis-retinyl acetate; format: in vivo
Method: FIG. 2 plots human pharmacokinetic (PK) data for the circulating levels of 9-cis-retinol in the blood from completed clinical trials where 9-cis-retinyl acetate was administered orally.
9-cis-retinyl acetate is the acetate ester of 9-cis-retinol. Acetate esters like 9-cis-retinyl acetate are generally short-lived because they are readily hydrolyzed either at physiological pH or by esterases in the blood and other parts of the body.
Thus, further discussion focuses on 9-cis-retinol.
Collated in FIG. 2 are human PK data that show a Cmax between 4 and 7 hours for 9-cis-retinol independent of initial dose administered. A low steady level of 9-cis-retinol is achieved in ˜24 hours. […] The circulating 9-cis-retinol is observed at similar levels from about 24 hours through at least 700 hours after a single dose.
(§1) Clearance from the blood is rapid above ˜8 nM, but quickly drops to zero or near zero below that level. Steady state levels (from ˜24 hrs post dose) are 4.57 nM (10 mg/m^2 dose, 83 samples), 8.32 nM (40 mg/m^2 dose, 149 samples), and 7.46 nM (5 to 60 mg/m^2, 629 samples).

[2] = Population PK model (2 compartment, concentration-dependent clearance) for 9-cis-retinol built on the observed clinical data; settings: human blood, FIG. 4
Source text: FIG. 3 schematically illustrates a 2 compartment PK model used to describe the observed clinical data.
From the observed PK data analyzed, a population PK model for levels of 9-cis-retinol was built. Based on the observed clinical data, a 2 compartment PK model was constructed (FIG. 3). This kinetic model for 9-cis-retinol includes a recirculation feature that maintains 9-cis-retinol levels for long periods of time. Two features of this model include apparent concentration-dependent clearance of 9-cis-retinol from the blood, and apparent zero or close to zero clearance at low concentrations. This accounts for long recirculating levels of 9-cis-retinol, seen in samples consistently at 100 hours, 300 hours and 700 hours post last dose administered.
as §1

Steady state levels (from ~24 hrs post dose) ([1]; 10 mg/m^2 dose, 83 samples) [nM]	Steady state levels (from ~24 hrs post dose) ([1]; 40 mg/m^2 dose, 149 samples) [nM]	Steady state levels (from ~24 hrs post dose) ([1]; 5 to 60 mg/m^2, 629 samples) [nM]	Time through which circulating 9-cis-retinol is observed at similar levels ([1]; human, in vivo)	Cmax (time of) for 9-cis-retinol ([1]; human, in vivo, po) [h]	Time at which a low steady level of 9-cis-retinol is achieved ([1]; human, in vivo, po)	Concentration above which clearance from the blood is rapid (drops to zero or near zero below) [2] [nM]	Compound	Persistence of 9-cis-retinyl acetate in human blood samples following oral dosing ([1]; human, in vivo, po)
4.57	8.32	7.46	at least 700 hours	4 to 7	about 24 hours	~8	CC1=C(/C=C/C(C)=C\C=C\C(C)=C\CO)C(C)(C)CCC1 [9-cis-retinol]	–
–	–	–	–	–	–	–	CC(=O)OC/C=C(C)/C=C/C=C(C)\C=C\C1=C(C)CCCC1(C)C [9-cis-retinyl acetate, (2E,4E,6Z,8E)-3,7-dimethyl-9-(2,6,6-trimethylcyclohex-1-en-1-yl)nona-2,4,6,8-tetraen-1-yl acetate]	extremely short lived and rapidly hydrolyzed to 9-cis-retinol
